Assay results from patent US11446287B2, “Compounds and methods for EP300 or CBP modulation and indications therefor” (Opna Immuno-Oncology SA, priority 2019, dated 2022).

Biological target: T1, Recombinant human EP300 containing the bromodomain (EP300-BD (1040-1161)) (Homo sapiens, UniProt Q09472)
T1 construct: Recombinant human EP300 bromodomain (EP300-BD (1040-1161)); made in house; host or cells: E. coli BL21-CodonPlus (DE3), modified pET vector
T1 sequence (Q09472 1040-1161): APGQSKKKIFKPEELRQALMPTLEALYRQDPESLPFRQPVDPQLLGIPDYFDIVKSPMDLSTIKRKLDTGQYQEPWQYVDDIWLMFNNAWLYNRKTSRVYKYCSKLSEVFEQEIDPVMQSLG
Experiment: EP300 Alphascreen binding assay
Procedure, shortened: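 Displacement of a biotinylated acetyl-K56 histone H3 peptide from the N-His bromodomain construct (1040-1161) measured by AlphaScreen proximity, beads at 7.5 μg/ml final, read 60 min after addition. Protein, peptide and compound first incubated 1 h at room temperature, pH 7.5 HEPES buffer; IC50 by four-parameter logistic fit.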

Row | Structure (SMILES) | IC50
1 | CCOc1cc(C(=O)O)nc(OCC)c1-n1cc(-c2ccc(F)cc2F)c2ncc(-c3c(C)noc3C)cc21 [P-0431, 5-(3-(2,4-difluorophenyl)-6-(3,5-dimethylisoxazol-4-yl)-1H-pyrrolo[3,2-b]pyridin-1-yl)-4,6-diethoxypicolinic acid] | 0.1 to 1000 nM
2 | CCOc1cc(C(=O)OC)nc(OCC)c1-c1cn(-c2ccc(F)cc2F)c2ncc(-c3c(C)noc3C)cc12 [P-0432, methyl 5-(1-(2,4-difluorophenyl)-5-(3,5-dimethylisoxazol-4-yl)-1H-pyrrolo[2,3-b]pyridin-3-yl)-4,6-diethoxypicolinate] | 0.1 to 1000 nM
3 | CCOc1cc(C(=O)O)nc(OCC)c1-c1cn(C2CCN(C(=O)OC(C)(C)C)CC2)c2ncc(-c3c(C)noc3C)cc12 [P-0433, 5-(1-(1-(tert-butoxycarbonyl)piperidin-4-yl)-5-(3,5-dimethylisoxazol-4-yl)-1H-pyrrolo[2,3-b]pyridin-3-yl)-4,6-diethoxypicolinic acid] | 0.1 to 1000 nM
4 | Cc1noc(C)c1-c1cnc2c(c1)c(C1CCC(C(=O)O)CC1)cn2-c1ccc(F)cc1F (stereo not shown) [P-0434, 4-(1-(2,4-difluorophenyl)-5-(3,5-dimethylisoxazol-4-yl)-1H-pyrrolo[2,3-b]pyridin-3-yl)cyclohexane-1-carboxylic acid] | 0.1 to 1000 nM
5 | CCOc1cc(C(=O)O)nc(OCC)c1-c1cn(C2CCN(S(C)(=O)=O)CC2)c2ncc(-c3c(C)noc3C)cc12 [P-0435, 5-(5-(3,5-dimethylisoxazol-4-yl)-1-(1-(methylsulfonyl)piperidin-4-yl)-1H-pyrrolo[2,3-b]pyridin-3-yl)-4,6-diethoxypicolinic acid] | 0.1 to 1000 nM
6 | CCOc1cc(C(=O)O)nc(OCC)c1-c1cn(-c2cccnc2)c2ncc(-c3c(C)noc3C)cc12 [P-0436, 5-(5-(3,5-dimethylisoxazol-4-yl)-1-(pyridin-3-yl)-1H-pyrrolo[2,3-b]pyridin-3-yl)-4,6-diethoxypicolinic acid] | 0.1 to 1000 nM
7 | Cc1noc(C)c1-c1cnc2c(c1)c(-c1ccc(CC(=O)O)cc1F)cn2-c1ccc(F)cc1F [P-0437] | 0.1 to 1000 nM
8 | Cc1noc(C)c1-c1cnc2c(c1)c(-c1ccc(CC(=O)O)cc1)cn2-c1ccc(F)cc1F [P-0438, 2-(4-(1-(2,4-difluorophenyl)-5-(3,5-dimethylisoxazol-4-yl)-1H-pyrrolo[2,3-b]pyridin-3-yl)phenyl)acetic acid] | 0.1 to 1000 nM
9 | Cc1noc(C)c1-c1cnc2c(c1)c(-c1c(Cl)cc(C(=O)O)cc1OC(F)(F)F)cn2-c1cccnn1 [P-0439, 3-chloro-4-(5-(3,5-dimethylisoxazol-4-yl)-1-(pyridazin-3-yl)-1H-pyrrolo[2,3-b]pyridin-3-yl)-5-(trifluoromethoxy)benzoic acid] | 0.1 to 1000 nM
10 | COC(=O)c1cc(Cl)c(-c2cn(-c3ccc(C4CC4)nc3)c3ncc(-c4c(C)noc4C)cc23)c(OC(F)(F)F)c1 [P-0440, methyl 3-chloro-4-(1-(6-cyclopropylpyridin-3-yl)-5-(3,5-dimethylisoxazol-4-yl)-1H-pyrrolo[2,3-b]pyridin-3-yl)-5-(trifluoromethoxy)benzoate] | 1000 to 8000 nM
11 | Cc1noc(C)c1-c1cnc2c(c1)c(-c1c(Cl)cc(C(=O)O)cc1OC(F)(F)F)cn2-c1ccc(C2CC2)nc1 [P-0441, 3-chloro-4-(1-(6-cyclopropylpyridin-3-yl)-5-(3,5-dimethylisoxazol-4-yl)-1H-pyrrolo[2,3-b]pyridin-3-yl)-5-(trifluoromethoxy)benzoic acid] | 0.1 to 1000 nM
12 | CCOc1cc(C(=O)O)c(F)cc1-c1cn(C2CCN(C(=O)OC(C)(C)C)CC2)c2ncc(-c3c(C)noc3C)cc12 [P-0442, 4-(1-(1-(tert-butoxycarbonyl)piperidin-4-yl)-5-(3,5-dimethylisoxazol-4-yl)-1H-pyrrolo[2,3-b]pyridin-3-yl)-5-ethoxy-2-fluorobenzoic acid] | 0.1 to 1000 nM
13 | COc1ccc(CC(=O)O)cc1-c1cn(-c2ccc(F)cc2F)c2ncc(-c3c(C)noc3C)cc12 [P-0443, 2-(3-(1-(2,4-difluorophenyl)-5-(3,5-dimethylisoxazol-4-yl)-1H-pyrrolo[2,3-b]pyridin-3-yl)-4-methoxyphenyl)acetic acid] | 0.1 to 1000 nM
14 | Cc1noc(C)c1-c1cnc2c(c1)c(-c1cc(F)c(C(=O)O)cc1OC(F)(F)F)cn2-c1ccc(C2CC2)nc1 [P-0444, 4-(1-(6-cyclopropylpyridin-3-yl)-5-(3,5-dimethylisoxazol-4-yl)-1H-pyrrolo[2,3-b]pyridin-3-yl)-2-fluoro-5-(trifluoromethoxy)benzoic acid] | 0.1 to 1000 nM
15 | CCOc1cc(C(=O)O)c(F)cc1-c1cn(C2CCN(C(=O)C(C)(C)C)CC2)c2ncc(-c3c(C)noc3C)cc12 [P-0445, 4-(5-(3,5-dimethylisoxazol-4-yl)-1-(1-pivaloylpiperidin-4-yl)-1H-pyrrolo[2,3-b]pyridin-3-yl)-5-ethoxy-2-fluorobenzoic acid] | 0.1 to 1000 nM
16 | CCOc1cc(C(=O)O)c(F)cc1-c1cn(C2CCN(CCC#N)CC2)c2ncc(-c3c(C)noc3C)cc12 [P-0446, 4-(1-(1-(2-cyanoethyl)piperidin-4-yl)-5-(3,5-dimethylisoxazol-4-yl)-1H-pyrrolo[2,3-b]pyridin-3-yl)-5-ethoxy-2-fluorobenzoic acid] | 0.1 to 1000 nM
17 | CCOc1cc(C(=O)O)c(F)cc1-c1cn(C2CCN(C(=O)CO)CC2)c2ncc(-c3c(C)noc3C)cc12 [P-0447, 4-(5-(3,5-dimethylisoxazol-4-yl)-1-(1-(2-hydroxyacetyl)piperidin-4-yl)-1H-pyrrolo[2,3-b]pyridin-3-yl)-5-ethoxy-2-fluorobenzoic acid] | 0.1 to 1000 nM
18 | CCc1onc(C)c1-c1cnc2c(c1)c(-c1c(Cl)cc(C(=O)O)cc1OC(F)(F)F)cn2-c1ccc(C2CC2)nc1 [P-0448, 3-chloro-4-(1-(6-cyclopropylpyridin-3-yl)-5-(5-ethyl-3-methylisoxazol-4-yl)-1H-pyrrolo[2,3-b]pyridin-3-yl)-5-(trifluoromethoxy)benzoic acid] | 0.1 to 1000 nM
19 | Cc1nnn(C)c1-c1cnc2c(c1)c(-c1cccc(C(=O)O)c1)cn2[C@@H](C)c1ccccn1 [P-0449, (S)-3-(5-(1,4-dimethyl-1H-1,2,3-triazol-5-yl)-1-(1-(pyridin-2-yl)ethyl)-1H-pyrrolo[2,3-b]pyridin-3-yl)benzoic acid] | 0.1 to 1000 nM
